Experimental data taken from patent US20250163038A1, “CBL-B MODULATORS AND USES THEREOF” (Nimbus Clio, Inc., priority 2021, published 2025).

Key:
[1] = molecular target: Recombinant human Cbl-b (aa 36-427) (Homo sapiens, UniProt Q13191); assay: Cbl-b Biochemical Assay (TR-FRET); settings: read-out: TR-FRET hCbl-b IC50
[2] = test system: Jurkat (clone E6-1) cells with NFAT luciferase reporter; assay: Jurkat reporter assay (NFAT Luciferase); assay type: cell-based; settings: Homo sapiens; Jurkat NFAT luciferase reporter cells, anti-CD3 stimulation, 6 hr; read-out: Jurkat NFAT EC50
[3] = molecular target: T1, Recombinant human c-Cbl (aa 47-435) (Homo sapiens, UniProt P22681); assay: c-Cbl Biochemical Assay (TR-FRET); settings: hc-Cbl Biochemical Assay (TR-FRET); read-out: TR-FRET hcCbl IC50
T1 sequence (P22681 47-435): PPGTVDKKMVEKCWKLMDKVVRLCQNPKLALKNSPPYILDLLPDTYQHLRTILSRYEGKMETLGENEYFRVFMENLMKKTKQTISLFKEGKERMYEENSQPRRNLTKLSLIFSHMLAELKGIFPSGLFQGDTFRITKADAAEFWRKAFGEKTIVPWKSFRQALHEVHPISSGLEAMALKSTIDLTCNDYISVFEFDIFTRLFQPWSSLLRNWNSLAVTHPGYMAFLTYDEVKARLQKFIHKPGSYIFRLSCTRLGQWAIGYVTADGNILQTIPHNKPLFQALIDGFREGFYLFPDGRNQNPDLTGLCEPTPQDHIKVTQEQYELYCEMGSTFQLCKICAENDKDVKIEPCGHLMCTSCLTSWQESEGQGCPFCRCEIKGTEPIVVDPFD

Recombinant human Cbl-b (aa 36-427), sequence (Q13191 36-427): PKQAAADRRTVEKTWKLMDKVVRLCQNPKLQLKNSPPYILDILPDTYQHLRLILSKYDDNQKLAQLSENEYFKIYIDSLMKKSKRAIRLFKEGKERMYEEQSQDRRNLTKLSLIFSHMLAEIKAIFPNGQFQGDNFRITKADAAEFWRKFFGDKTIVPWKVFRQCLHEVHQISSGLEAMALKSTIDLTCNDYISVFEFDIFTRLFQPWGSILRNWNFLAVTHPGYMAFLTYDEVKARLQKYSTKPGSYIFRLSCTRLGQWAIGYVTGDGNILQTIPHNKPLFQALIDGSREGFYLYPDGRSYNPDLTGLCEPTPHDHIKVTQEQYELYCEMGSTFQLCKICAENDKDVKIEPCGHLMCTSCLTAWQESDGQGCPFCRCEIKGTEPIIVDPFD

IC50 [1] [nM]	EC50 [2] [nM]	IC50 [3] [nM]	Compound
< 200	200 to 1000	< 200	Cn1cnnc1-c1cc(F)ccc1-c1cccc(-c2nc3cc(CNCC(C)(C)C#N)cc(C(F)(F)F)c3o2)c1 [DN-2, 3-(((2-(4′-fluoro-2′-(4-methyl-4H-1,2,4-triazol-3-yl)-[1,1′-biphenyl]-3-yl)-7-(trifluoromethyl)benzo[d]oxazol-5-yl)methyl)amino)-2,2-dimethylpropanenitrile]
< 200	1000 to 10000	200 to 1000	COCC(C)(C)NCc1cc(C(F)(F)F)c2oc(-c3cccc(-c4ccc(F)cc4-c4nncn4C)c3)nc2c1 [EO-2, N-((2-(4′-Fluoro-2′-(4-methyl-4H-1,2,4-triazol-3-yl)-[1,1′-biphenyl]-3-yl)-7-(trifluoromethyl)benzo[d]oxazol-5-yl)methyl)-1-methoxy-2-methylpropan-2-amine]
< 200	200 to 1000	1000 to 10000	Cn1cnnc1-c1cc(F)ccc1-c1cccc(-c2nc3cc(CNCC4(O)CCC4)cc(C(F)(F)F)c3[nH]2)c1 [BP-1, 1-((((2-(4′-Fluoro-2′-(4-methyl-4H-1,2,4-triazol-3-yl)-[1,1′-biphenyl]-3-yl)-7-(trifluoromethyl)-1H-benzo[d]imidazol-5-yl)methyl)amino)methyl)cyclobutan-1-ol]
< 200	1000 to 10000	200 to 1000	Cn1cnnc1-c1cc(F)ccc1-c1cccc(-c2nc3cc(CN4C(=O)O[C@H]5CCC[C@H]54)cc(C(F)(F)F)c3o2)c1 [CY-1, (3aR,6aS)-3-((2-(4′-Fluoro-2′-(4-methyl-4H-1,2,4-triazol-3-yl)-[1,1′-biphenyl]-3-yl)-7-(trifluoromethyl)benzo[d]oxazol-5-yl)methyl)hexahydro-2H-cyclopenta[d]oxazol-2-one]
< 200	< 200	< 200	CCC1(CNCc2cc(C(F)(F)F)c3oc(-c4cccc(-c5ccc(F)cc5-c5nncn5C)c4)nc3c2)CCC1 [HP-2, 1-(1-Ethylcyclobutyl)-N-((2-(4′-fluoro-2′-(4-methyl-4H-1,2,4-triazol-3-yl)-[1,1′-biphenyl]-3-yl)-7-(trifluoromethyl)benzo[d]oxazol-5-yl)methyl)methanamine]
< 200	< 200	< 200	Cn1cnnc1-c1cc(F)ccc1-c1cc(-c2nc3cc(CNCC4CCC4)cc(F)c3o2)cc(C2CC2)c1 [JO-1, 1-Cyclobutyl-N-((2-(5-cyclopropyl-4′-fluoro-2′-(4-methyl-4H-1,2,4-triazol-3-yl)-[1,1′-biphenyl]-3-yl)-7-fluorobenzo[d]oxazol-5-yl)methyl)methanamine]
< 200	< 200	< 200	Cn1cnnc1-c1cc(F)ccc1-c1cc(-c2nc3cc(CNCC4CCC4)c(F)c(F)c3o2)nc(C2CC2)c1 [AGE-1, 1-Cyclobutyl-N-((2-(6-cyclopropyl-4-(4-fluoro-2-(4-methyl-4H-1,2,4-triazol-3-yl)phenyl)pyridin-2-yl)-6,7-difluorobenzo[d]oxazol-5-yl)methyl)methanamine]
< 200	< 200	< 200	Cn1cnnc1-c1cc(F)ccc1-c1cccc(-c2nc3cc(CN[C@@H]4CCC[C@@H]4O)cc(Br)c3o2)c1 [ER-2, (1S,2R)-2-(((7-Bromo-2-(4′-fluoro-2′-(4-methyl-4H-1,2,4-triazol-3-yl)-[1,1′-biphenyl]-3-yl)benzo[d]oxazol-5-yl)methyl)amino)cyclopentan-1-ol]
< 200	< 200	< 200	CC(NCC1(O)CCC1)c1cc(F)c2oc(-c3cc(-c4ccc(F)cc4-c4nncn4C)cc(C4CC4)n3)nc2c1 (stereo in doubt) [AFQ-6, 1-({[(1S)-1-(2-{6-Cyclopropyl-4-[4-fluoro-2-(4-methyl-1,2,4-triazol-3-yl)phenyl]pyridin-2-yl}-7-fluoro-1,3-benzoxazol-5-yl)ethyl]amino}methyl)cyclobutan-1-ol]
< 200	200 to 1000	< 200	Cn1cnnc1-c1cc(F)ccc1-c1cc(-c2nc3cc(CO)cc(C(F)(F)F)c3[nH]2)nc(C2CC2)c1 [ADU-2, (2-{6-Cyclopropyl-4-[4-fluoro-2-(4-methyl-1,2,4-triazol-3-yl)phenyl]pyridin-2-yl}-7-(trifluoromethyl)-1H-1,3-benzodiazol-5-yl)methanol]
200 to 1000	1000 to 10000	10000 to 50000	CC(c1cc(C(F)(F)F)c2[nH]c(-c3cccc(C4(Cc5nncn5C)COC4)c3)nc2c1)N1CCC2(CC2)C1 (stereo not drawn) [ACK-3, 5-(1-(5-Azaspiro[2.4]heptan-5-yl)ethyl)-2-(3-(3-((4-methyl-4H-1,2,4-triazol-3-yl)methyl)oxetan-3-yl)phenyl)-7-(trifluoromethyl)-1H-benzo[d]imidazole]
< 200	200 to 1000	1000 to 10000	Cn1cnnc1-c1cc(F)ccc1-c1cccc(-c2nc3cc(CN[C@@H]4CCC[C@H]4O)cc(C(F)(F)F)c3o2)c1 [Example W-2, (1R,2R)-2-(((2-(4′-Fluoro-2′-(4-methyl-4H-1,2,4-triazol-3-yl)-[1,1′-biphenyl]-3-yl)-7-(trifluoromethyl)benzo[d]oxazol-5-yl)methyl)amino)cyclopentan-1-ol]
< 200	< 200	< 200	CN(Cc1cc(C(F)(F)F)c2[nH]c(-c3cccc(-c4ccc(F)cc4-c4nncn4C)c3)nc2c1)[C@@H]1CCC[C@@H]1O [ID-3, (1S,2R)-2-(((2-(4′-Fluoro-2′-(4-methyl-4H-1,2,4-triazol-3-yl)-[1,1′-biphenyl]-3-yl)-7-(trifluoromethyl)-1H-benzo[d]imidazol-5-yl)methyl)(methyl)amino)cyclopentan-1-ol]
< 200	200 to 1000	< 200	COc1cc(CN(C)[C@@H]2CCC[C@@H]2O)cc2nc(-c3cccc(-c4ccc(F)cc4-c4nncn4C)c3)oc12 [HT-3, (1S,2R)-2-(((2-(4′-Fluoro-2′-(4-methyl-4H-1,2,4-triazol-3-yl)-[1,1′-biphenyl]-3-yl)-7-methoxybenzo[d]oxazol-5-yl)methyl)(methyl)amino)cyclopentan-1-ol]
< 200	1000 to 10000	200 to 1000	CO[C@H](CO)c1cc(C(F)(F)F)c2oc(-c3cccc(-c4ccc(F)cc4-c4nncn4C)c3)nc2c1 (single isomer, unassigned) [EG-2]
< 200	< 200	< 200	C[C@H](O)CNCc1cc(F)c2oc(-c3cccc(-c4ccc(F)cc4-c4nncn4C)c3)nc2c1 [JP-1, (S)-1-(((7-Fluoro-2-(4′-fluoro-2′-(4-methyl-4H-1,2,4-triazol-3-yl)-[1,1′-biphenyl]-3-yl)benzo[d]oxazol-5-yl)methyl)amino)propan-2-ol]
< 200	1000 to 10000	200 to 1000	CN(C)CC(=O)NCc1cc(C(F)(F)F)c2oc(-c3cccc(-c4ccc(F)cc4-c4nncn4C)c3)nc2c1 [HC-2, 2-(Dimethylamino)-N-((2-(4′-fluoro-2′-(4-methyl-4H-1,2,4-triazol-3-yl)-[1,1′-biphenyl]-3-yl)-7-(trifluoromethyl)benzo[d]oxazol-5-yl)methyl)acetamide]
< 200	< 200	< 200	Cc1c(F)c(CN[C@@H]2CCC[C@@H]2O)cc2nc(-c3cc(-c4ccc(F)cc4-c4nncn4C)cc(C4CC4)n3)oc12 [AGQ-2, (1S,2R)-2-{[(2-{6-Cyclopropyl-4-[4-fluoro-2-(4-methyl-1,2,4-triazol-3-yl)phenyl]pyridin-2-yl}-6-fluoro-7-methyl-1,3-benzoxazol-5-yl)methyl]amino}cyclopentan-1-ol]
10000 to 50000	10000 to 50000	10000 to 50000	Cn1cnnc1-c1cc(F)ccc1-c1cccc(-c2cn3ccc(CO)cc3n2)c1 [GN-5, (2-(4′-Fluoro-2′-(4-methyl-4H-1,2,4-triazol-3-yl)-[1,1′-biphenyl]-3-yl)imidazo[1,2-a]pyridin-7-yl)methanol]
200 to 1000	10000 to 50000	200 to 1000	CCNc1cc(-c2ccc(F)cc2-c2nncn2C)cc(-c2nc3cc(CO)cc(C(F)(F)F)c3o2)n1 [AEL-1, {2-[6-(Ethylamino)-4-[4-fluoro-2-(4-methyl-1,2,4-triazol-3-yl)-phenyl]-pyridin-2-yl]-7-(trifluoromethyl)-1,3-benzoxazol-5-yl}-methanol]
< 200	200 to 1000	200 to 1000	COc1cc(CNC2CCC2)cc2nc(-c3cccc(-c4ccc(F)cc4-c4nncn4C)c3)oc12 [GH-1, N-((2-(4′-Fluoro-2′-(4-methyl-4H-1,2,4-triazol-3-yl)-[1,1′-biphenyl]-3-yl)-7-methoxybenzo[d]oxazol-5-yl)methyl)cyclobutanamine]
< 200	200 to 1000	< 200	CC(C)CC1(CNCc2cc(C(F)(F)F)c3oc(-c4cccc(-c5ccc(F)cc5-c5nncn5C)c4)nc3c2)CCC1 [HQ-2, 1-(2-(4′-Fluoro-2′-(4-methyl-4H-1,2,4-triazol-3-yl)-[1,1′-biphenyl]-3-yl)-7-(trifluoromethyl)benzo[d]oxazol-5-yl)-N-((1-isobutylcyclobutyl)methyl)methanamine]
